Source: patent US12252524B2, “GIP/GLP1 co-agonist compounds” (Eli Lilly and Company, priority 2018, dated 2025)
Numbered stars: 1 amine (or outer) side, 2 acyl side, 3 side chain; on linkers, the order of the positions; unused ones are H or OH. Square brackets hold non-standard residues; d marks the D form. Side chains are listed from the residue outwards. Peptide text beside a SMILES is read from it. * marks the point of attachment. C20 diacid = O=C(O)CCCCCCCCCCCCCCCCCCC(=O)*; C18 diacid = O=C(O)CCCCCCCCCCCCCCCCC(=O)*; γGlu = O=C(O)[C@H](CCC(=O)[*:2])N[*:1]; AEEA = NCCOCCOCC(=O)O; Aib = CC(C)(N)C(=O)O

Experiments:
human GLP-1R = human GLP-1R (Homo sapiens, UniProt P43220); test: [125I]-GLP-1 binding (SPA), human GLP-1 receptor; design: expressed in transfected cells; crude membranes; details: read-out: hGLP1R Ki, (nM) (SEM, n)
Summary of the method: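 Crude-membrane binding assay; one membrane prep included 1 mM MgCl2 and 25 units/ml DNAse I during lysis. Assay buffer at pH 7.4 contains 0.1% (w/v) bacitracin and 0.003% (w/v) TWEEN-20. Ki is reported as geometric mean.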

[1] = target: human GLP-1 receptor (GLP-1R) (Homo sapiens, UniProt P43220); test: cAMP pharmacological functional assay in presence of casein, hGLP-1R; type: cell-based; details: HEK293 cells expressing hGLP-1R, 0.1% Casein, geometric mean; read-out: hGLP1R cAMP Rel EC50 nM (SEM, n)
[2] = target: T1, gastric inhibitory peptide receptor (GIPR) (Homo sapiens, UniProt P48546); test: cAMP pharmacological functional assay in presence of casein, hGIPR; type: cell-based; details: HEK293 cells expressing hGIPR, 0.1% Casein, geometric mean; read-out: hGIPR cAMP Rel EC50 nM (SEM, n)
T1 sequence (P48546 22-466): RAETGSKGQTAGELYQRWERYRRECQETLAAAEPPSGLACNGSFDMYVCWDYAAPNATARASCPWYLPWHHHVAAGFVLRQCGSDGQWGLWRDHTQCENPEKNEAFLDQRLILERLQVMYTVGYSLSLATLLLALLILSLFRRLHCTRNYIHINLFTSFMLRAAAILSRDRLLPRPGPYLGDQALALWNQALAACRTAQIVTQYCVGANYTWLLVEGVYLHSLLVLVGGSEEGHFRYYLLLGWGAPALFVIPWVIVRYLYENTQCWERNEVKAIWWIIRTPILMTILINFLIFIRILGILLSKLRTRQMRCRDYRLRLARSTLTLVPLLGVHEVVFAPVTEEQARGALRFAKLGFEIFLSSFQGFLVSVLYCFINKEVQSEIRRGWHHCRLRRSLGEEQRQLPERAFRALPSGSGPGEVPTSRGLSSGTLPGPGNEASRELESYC

human GIP receptor = target: T2, human GIP receptor (Homo sapiens, UniProt P48546); test: [125I]-GIP binding (SPA), human GIP receptor; details: read-out: hGIPR Ki, nM (SEM, n)
T2 construct: expressed in transfected cells; crude membranes
T2 sequence (P48546 22-466): T1 sequence (P48546 22-466)

human Gcg receptor = target: T3, human Gcg receptor (Homo sapiens, UniProt P47871); test: [125I]-Glucagon binding (SPA), human Gcg receptor; details: read-out: hGLcgR Ki, nM (SEM, n)
T3 construct: expressed in transfected cells; crude membranes
Summary of the method: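 Crude membranes from cells expressing the receptor, prepared by hypotonic lysis in 50 mM Tris HCl pH 7.5 with protease inhibitors, homogenization and differential centrifugation, were used in a WGA-bead SPA. Binding buffer: 25 mM HEPES pH 7.4, 2.5 mM CaCl2, 1 mM MgCl2, bacitracin, Tween-20.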

T3 sequence (P47871 26-477): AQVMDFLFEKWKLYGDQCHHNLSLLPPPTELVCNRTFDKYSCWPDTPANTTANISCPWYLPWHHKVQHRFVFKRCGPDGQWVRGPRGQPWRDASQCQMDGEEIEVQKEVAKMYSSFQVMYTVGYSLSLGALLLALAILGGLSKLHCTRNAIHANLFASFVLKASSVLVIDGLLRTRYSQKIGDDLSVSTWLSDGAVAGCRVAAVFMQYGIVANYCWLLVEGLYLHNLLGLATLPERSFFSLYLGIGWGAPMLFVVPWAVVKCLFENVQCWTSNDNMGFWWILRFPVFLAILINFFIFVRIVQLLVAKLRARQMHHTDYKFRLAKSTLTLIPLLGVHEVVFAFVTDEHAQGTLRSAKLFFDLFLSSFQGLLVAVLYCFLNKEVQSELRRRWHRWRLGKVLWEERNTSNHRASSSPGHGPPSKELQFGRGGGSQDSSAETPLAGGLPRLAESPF
human GLP-1 receptor (GLP-1R), sequence (P43220 24-463): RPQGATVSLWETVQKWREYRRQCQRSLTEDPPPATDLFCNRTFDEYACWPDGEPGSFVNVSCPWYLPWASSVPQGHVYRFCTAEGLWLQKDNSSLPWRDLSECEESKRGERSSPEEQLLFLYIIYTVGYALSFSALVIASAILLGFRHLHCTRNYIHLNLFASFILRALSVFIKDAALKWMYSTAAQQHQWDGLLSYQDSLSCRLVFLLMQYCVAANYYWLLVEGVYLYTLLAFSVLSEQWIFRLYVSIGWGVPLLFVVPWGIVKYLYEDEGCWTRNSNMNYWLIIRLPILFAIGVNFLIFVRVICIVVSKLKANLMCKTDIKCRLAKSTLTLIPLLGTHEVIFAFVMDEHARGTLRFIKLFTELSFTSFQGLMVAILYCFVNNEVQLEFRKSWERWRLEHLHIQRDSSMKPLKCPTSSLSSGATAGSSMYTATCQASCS
human GLP-1R, sequence (P43220 24-463): as above

SMILES | Ki (human GLP-1R) [nM] | EC50 [1] [nM] | EC50 [2] [nM] | Ki (human GIP receptor) [nM] | Ki (human Gcg receptor) [nM]
CC[C@H](C)[C@H](NC(=O)[C@H](CC(C)C)NC(=O)[C@H](Cc1ccc(O)cc1)NC(=O)[C@H](CCC(=O)O)NC(=O)[C@@H](NC(=O)[C@H](Cc1ccccc1)NC(=O)[C@H](C)NC(=O)[C@H](Cc1c[nH]cn1)NC(=O)[C@H](CCC(N)=O)NC(=O)[C@H](C)NC(=O)[C@H](CCCCNC(=O)COCCOCCNC(=O)COCCOCCNC(=O)CC[C@H](NC(=O)CCCCCCCCCCCCCCCCCCC(=O)O)C(=O)O)NC(=O)[C@H](CCCCN)NC(=O)[C@H](CC(=O)O)NC(=O)[C@H](CC(C)C)NC(=O)[C@H](CC(C)C)NC(=O)[C@@H](NC(=O)[C@H](CO)NC(=O)[C@H](Cc1ccc(O)cc1)NC(=O)[C@H](CC(=O)O)NC(=O)[C@H](CO)NC(=O)[C@@H](NC(=O)[C@H](Cc1ccccc1)NC(=O)[C@@H](NC(=O)CNC(=O)[C@H](CCC(=O)O)NC(=O)C(C)(C)NC(=O)[C@@H](N)Cc1ccc(O)cc1)[C@@H](C)O)[C@@H](C)O)[C@@H](C)CC)[C@@H](C)CC)C(=O)N[C@@H](CCC(=O)O)C(=O)NCC(=O)NCC(=O)N1CCC[C@H]1C(=O)N[C@@H](CO)C(=O)N[C@@H](CO)C(=O)NCC(=O)N[C@@H](C)C(=O)N1CCC[C@H]1C(=O)N1CCC[C@H]1C(=O)N1CCC[C@H]1C(=O)N[C@@H](CO)C(N)=O [Example 255] (H-Y[Aib]EGTFTSDYSILLDKK([AEEA-AEEA-γGlu-C20 diacid])AQHAFIEYLIEGGPSSGAPPPS-NH2; N-terminus assumed) | 2.58 | 0.0407 | 0.102 | 0.0772 | 257
CC[C@H](C)[C@H](NC(=O)[C@H](CC(C)C)NC(=O)[C@H](Cc1ccc(O)cc1)NC(=O)[C@H](CCC(=O)O)NC(=O)[C@@H](NC(=O)[C@H](Cc1ccccc1)NC(=O)[C@H](C)NC(=O)C(C)(C)NC(=O)[C@H](CCC(N)=O)NC(=O)[C@H](C)NC(=O)[C@H](CCCCNC(=O)COCCOCCNC(=O)COCCOCCNC(=O)CC[C@H](NC(=O)CCCCCCCCCCCCCCCCC(=O)O)C(=O)O)NC(=O)[C@H](CCC(=O)O)NC(=O)[C@H](CC(=O)O)NC(=O)[C@H](CC(C)C)NC(=O)[C@H](CC(C)C)NC(=O)[C@@H](NC(=O)[C@H](CO)NC(=O)[C@H](Cc1ccc(O)cc1)NC(=O)[C@H](CC(=O)O)NC(=O)[C@H](CO)NC(=O)[C@@H](NC(=O)[C@H](Cc1ccccc1)NC(=O)[C@@H](NC(=O)CNC(=O)[C@H](CCC(=O)O)NC(=O)C(C)(C)NC(=O)[C@@H](N)Cc1ccc(O)cc1)[C@@H](C)O)[C@@H](C)O)[C@@H](C)CC)[C@@H](C)CC)C(=O)N[C@@H](CCC(=O)O)C(=O)NCC(=O)NCC(N)=O [Example 269] (H-Y[Aib]EGTFTSDYSILLDEK([AEEA-AEEA-γGlu-C18 diacid])AQ[Aib]AFIEYLIEGG-NH2) | 7.1 | 0.0595 | 0.257 | 0.152 | > 1100
CC[C@H](C)[C@H](NC(=O)[C@H](CC(C)C)NC(=O)[C@H](Cc1ccc(O)cc1)NC(=O)[C@H](CCC(=O)O)NC(=O)[C@@H](NC(=O)[C@H](Cc1ccccc1)NC(=O)[C@H](CCC(=O)O)NC(=O)C(C)(C)NC(=O)[C@H](CCC(N)=O)NC(=O)[C@H](C)NC(=O)[C@H](CCCCNC(=O)COCCOCCNC(=O)COCCOCCNC(=O)CC[C@H](NC(=O)CCCCCCCCCCCCCCCCC(=O)O)C(=O)O)NC(=O)[C@H](CCCCN)NC(=O)[C@H](CC(=O)O)NC(=O)[C@H](CC(C)C)NC(=O)[C@H](CC(C)C)NC(=O)[C@@H](NC(=O)[C@H](CO)NC(=O)[C@H](Cc1ccc(O)cc1)NC(=O)[C@H](CC(=O)O)NC(=O)[C@H](CO)NC(=O)[C@@H](NC(=O)[C@H](Cc1ccccc1)NC(=O)[C@@H](NC(=O)CNC(=O)[C@H](CCC(=O)O)NC(=O)C(C)(C)NC(=O)[C@@H](N)Cc1ccc(O)cc1)[C@@H](C)O)[C@@H](C)O)[C@@H](C)CC)[C@@H](C)CC)C(=O)N[C@@H](CCC(=O)O)C(=O)NCC(=O)NCC(=O)N1CCC[C@H]1C(=O)N[C@@H](CO)C(=O)N[C@@H](CO)C(=O)NCC(N)=O [Example 270] (H-Y[Aib]EGTFTSDYSILLDKK([AEEA-AEEA-γGlu-C18 diacid])AQ[Aib]EFIEYLIEGGPSSG-NH2; N-terminus assumed) | 8.27 | 0.128 | 0.328 | 0.117 | > 1190

The remaining compounds from weak to strong by Ki (human GLP-1R), led by results:

Ki (human GLP-1R) [nM] | EC50 [1] [nM] | EC50 [2] [nM] | Ki (human GIP receptor) [nM] | Ki (human Gcg receptor) [nM] | SMILES
3.98 | 0.0572 | 0.239 | 0.0814 | > 1190 | CC[C@H](C)[C@H](NC(=O)[C@H](CC(C)C)NC(=O)[C@H](Cc1ccc(O)cc1)NC(=O)[C@H](CCC(=O)O)NC(=O)[C@@H](NC(=O)[C@H](Cc1ccccc1)NC(=O)[C@H](C)NC(=O)C(C)(C)NC(=O)[C@H](CCC(N)=O)NC(=O)[C@H](C)NC(=O)[C@H](CCCCNC(=O)COCCOCCNC(=O)COCCOCCNC(=O)CC[C@H](NC(=O)CCCCCCCCCCCCCCCCC(=O)O)C(=O)O)NC(=O)[C@H](CCC(=O)O)NC(=O)[C@H](CC(=O)O)NC(=O)[C@H](CC(C)C)NC(=O)[C@H](CC(C)C)NC(=O)[C@@H](NC(=O)[C@H](CO)NC(=O)[C@H](Cc1ccc(O)cc1)NC(=O)[C@H](CC(=O)O)NC(=O)[C@H](CO)NC(=O)[C@@H](NC(=O)[C@H](Cc1ccccc1)NC(=O)[C@@H](NC(=O)CNC(=O)[C@H](CCC(=O)O)NC(=O)C(C)(C)NC(=O)[C@@H](N)Cc1ccc(O)cc1)[C@@H](C)O)[C@@H](C)O)[C@@H](C)CC)[C@@H](C)CC)C(=O)N[C@@H](CCC(=O)O)C(=O)NCC(=O)NCC(=O)N1CCC[C@H]1C(=O)N[C@@H](CO)C(=O)N[C@@H](CO)C(=O)NCC(N)=O [Example 268] (H-Y[Aib]EGTFTSDYSILLDEK([AEEA-AEEA-γGlu-C18 diacid])AQ[Aib]AFIEYLIEGGPSSG-NH2)
0.537 | 0.0223 | 0.0229 | 0.0224 | 567 | CC[C@H](C)[C@H](NC(=O)[C@H](CC(C)C)NC(=O)C(C)(Cc1ccc(O)cc1)NC(=O)[C@@H](CCC(=O)O)NC(=O)[C@@H](NC(=O)[C@H](Cc1ccccc1)NC(=O)[C@H](CCC(=O)O)NC(=O)C(C)(C)NC(=O)[C@H](CCC(N)=O)NC(=O)[C@H](C)NC(=O)[C@H](CCCCNC(=O)COCCOCCNC(=O)COCCOCCNC(=O)CC[C@H](NC(=O)CCCCCCCCCCCCCCCCC(=O)O)C(=O)O)NC(=O)[C@H](CCCN)NC(=O)[C@H](CC(=O)O)NC(=O)[C@H](CC(C)C)NC(=O)C(C)(CC(C)C)NC(=O)[C@@H](NC(=O)[C@H](CO)NC(=O)[C@H](Cc1ccncc1)NC(=O)[C@H](CC(=O)O)NC(=O)[C@H](CO)NC(=O)[C@@H](NC(=O)C(C)(Cc1ccccc1F)NC(=O)[C@@H](NC(=O)CNC(=O)[C@H](CCC(=O)O)NC(=O)C(C)(C)NC(=O)[C@@H](N)Cc1ccc(O)cc1)[C@@H](C)O)[C@@H](C)O)[C@@H](C)CC)[C@@H](C)CC)C(=O)N[C@@H](CCC(=O)O)C(=O)NCC(=O)NCC(N)=O (stereo partly drawn) [Example 265]
0.412 | 0.0229 | 0.0196 | 0.015 | 388 | CC[C@H](C)[C@H](NC(=O)[C@H](CC(C)C)NC(=O)[C@](C)(Cc1ccc(O)cc1)NC(=O)[C@@H](CCC(=O)O)NC(=O)[C@@H](NC(=O)[C@H](Cc1ccccc1)NC(=O)[C@H](CCC(=O)O)NC(=O)C(C)(C)NC(=O)[C@H](CCC(N)=O)NC(=O)[C@H](C)NC(=O)[C@H](CCCCNC(=O)COCCOCCNC(=O)COCCOCCNC(=O)CC[C@H](NC(=O)CCCCCCCCCCCCCCCCC(=O)O)C(=O)O)NC(=O)[C@H](CCCN)NC(=O)[C@H](CC(=O)O)NC(=O)[C@H](CC(C)C)NC(=O)[C@](C)(CC(C)C)NC(=O)[C@@H](NC(=O)[C@H](CO)NC(=O)[C@H](Cc1ccncc1)NC(=O)[C@H](CC(=O)O)NC(=O)[C@H](CO)NC(=O)[C@@H](NC(=O)[C@](C)(Cc1ccccc1F)NC(=O)[C@@H](NC(=O)CNC(=O)[C@H](CCC(=O)O)NC(=O)C(C)(C)NC(=O)[C@@H](N)Cc1ccc(O)cc1)[C@@H](C)O)[C@@H](C)O)[C@@H](C)CC)[C@@H](C)CC)C(=O)N[C@@H](CCC(=O)O)C(=O)NCC(=O)NCC(=O)N1CCC[C@H]1C(=O)N[C@@H](CO)C(=O)N[C@@H](CO)C(=O)NCC(N)=O [Example 264]
